Assay results reported in US4287206A, “Halogen derivatives of 8-hydroxycarboxylic acids; the processes for their preparation and medicaments in which they are present” (priority 1978, dated 1981).

Key:
mice [1] = assay: Interaction with barbital sodium (sleep induced by barbital sodium in mice); format: in vivo; details: barbital sodium 180 mg.kg^-1 i.p.
Description: Interaction with barbital sodium
At time 0, the mice receive, by intraperitoneal or oral administration, distilled water or the medicament according to the invention. After 30 minutes, they receive barbital sodium (180 mg.kg^-1) by intraperitoneal administration.

mice [2] = assay: Anti-oxotremorine activity in mice (hypothermia induced by oxotremorine); format: in vivo; details: oxotremorine 0.5 mg.kg^-1 i.p.
Description: Anti-oxotremorine activity in mice
At time 0, the mice receive oxotremorine (0.5 mg.kg^-1) by intraperitoneal administration; after 30 minutes, either distilled water or the medicament according to the invention, obtained in accordance with Example I, is administered to the mice intraperitoneally or orally.
The mice are then observed and the trembling is rated from 0 to 3 as a function of its intensity, every 10 minutes for 30 minutes. Moreover, the existence of peripheral symptoms (tears, hypersialosis and defections) is observed for 2 hours, in the presence or absence of trembling. The rectal temperature is measured every 30 minutes for 2 hours, after administration of oxotremorine.

Compound: CC1CC(c2ccc(Cl)cc2)C(c2ccccc2)C(=O)O1 (stereo not drawn) [Example I, trans-4-(4'-chlorophenyl)-6-methyl-3-phenyl-3,4,5,6-tetrahydropyrone-2]
- % of mice which have slept (mice [1]; 2 mg/kg intraperitoneal): 100%
- Time in minutes for induction of sleep (mice [1]; 2 mg/kg intraperitoneal): 27 min
- Time in minutes of sleep (mice [1]; 2 mg/kg intraperitoneal): 67 ± 16 min
- % of mice which have slept (mice [1]; 2 mg/kg oral): 83%
- Time in minutes for induction of sleep (mice [1]; 2 mg/kg oral): 25 min
- Time in minutes of sleep (mice [1]; 2 mg/kg oral): 47 ± 15 min
- % of mice which have slept (mice [1]; 4 mg/kg intraperitoneal): 83%
- Time in minutes for induction of sleep (mice [1]; 4 mg/kg intraperitoneal): 22 min
- Time in minutes of sleep (mice [1]; 4 mg/kg intraperitoneal): 37 ± 13 min
- % of mice which have slept (mice [1]; 4 mg/kg oral): 25%
- Time in minutes for induction of sleep (mice [1]; 4 mg/kg oral): 33 min
- Time in minutes of sleep (mice [1]; 4 mg/kg oral): 56 min
- % of mice which have slept (mice [1]; 8 mg/kg intraperitoneal): 83%
- Time in minutes for induction of sleep (mice [1]; 8 mg/kg intraperitoneal): 30 min
- Time in minutes of sleep (mice [1]; 8 mg/kg intraperitoneal): 25 ± 4 min
- % of mice which have slept (mice [1]; 8 mg/kg oral): 42%
- Time in minutes for induction of sleep (mice [1]; 8 mg/kg oral): 32 min
- Time in minutes of sleep (mice [1]; 8 mg/kg oral): 43 min
- % of mice which have slept (mice [1]; 16 mg/kg intraperitoneal): 33%
- Time in minutes for induction of sleep (mice [1]; 16 mg/kg intraperitoneal): 38 min
- Time in minutes of sleep (mice [1]; 16 mg/kg intraperitoneal): 14 min
- % of mice which have slept (mice [1]; 16 mg/kg oral): 0%
- Time in minutes for induction of sleep (mice [1]; 16 mg/kg oral): 0 min
- Time in minutes of sleep (mice [1]; 16 mg/kg oral): 0 min
- % of mice which have slept (mice [1]; 32 mg/kg intraperitoneal): 0%
- Time in minutes for induction of sleep (mice [1]; 32 mg/kg intraperitoneal): 0 min
- Time in minutes of sleep (mice [1]; 32 mg/kg intraperitoneal): 0 min
- % of mice which have slept (mice [1]; 32 mg/kg oral): 00%
- Time in minutes for induction of sleep (mice [1]; 32 mg/kg oral): 0 min
- Time in minutes of sleep (mice [1]; 32 mg/kg oral): 0 min
- Rectal temperatures °C. (mice [2]; 1 mg/kg oral, 30 min): 29.8 ± 0.40 °C
- Rectal temperatures °C. (mice [2]; 1 mg/kg oral, 60 min): 27.8 ± 0.65 °C
- Rectal temperatures °C. (mice [2]; 1 mg/kg oral, 90 min): 27.8 ± 1.36 °C
- Rectal temperatures °C. (mice [2]; 1 mg/kg oral, 120 min): 28.0 ± 1.65 °C
- Rectal temperatures °C. (mice [2]; 2 mg/kg intraperitoneal, 30 min): 30.8 ± 0.43 °C
- Rectal temperatures °C. (mice [2]; 2 mg/kg intraperitoneal, 60 min): 29.1 ± 0.46 °C
- Rectal temperatures °C. (mice [2]; 2 mg/kg intraperitoneal, 90 min): 29.4 ± 0.52 °C
- Rectal temperatures °C. (mice [2]; 2 mg/kg intraperitoneal, 120 min): 29.9 ± 0.77 °C
- Rectal temperatures °C. (mice [2]; 2 mg/kg oral, 30 min): 31.5 ± 0.43 °C
- Rectal temperatures °C. (mice [2]; 2 mg/kg oral, 60 min): 31.0 ± 0.71 °C
- Rectal temperatures °C. (mice [2]; 2 mg/kg oral, 90 min): 31.2 ± 0.86 °C
- Rectal temperatures °C. (mice [2]; 2 mg/kg oral, 120 min): 31.9 ± 1.14 °C
- Rectal temperatures °C. (mice [2]; 4 mg/kg intraperitoneal, 30 min): 30.2 ± 0.36 °C
- Rectal temperatures °C. (mice [2]; 4 mg/kg intraperitoneal, 60 min): 31.8 ± 0.42 °C
- Rectal temperatures °C. (mice [2]; 4 mg/kg intraperitoneal, 90 min): 33.5 ± 0.49 °C
- Rectal temperatures °C. (mice [2]; 4 mg/kg intraperitoneal, 120 min): 35.7 ± 0.40 °C
- Rectal temperatures °C. (mice [2]; 4 mg/kg oral, 30 min): 31.8 ± 0.38 °C
- Rectal temperatures °C. (mice [2]; 4 mg/kg oral, 60 min): 31.0 ± 0.34 °C
- Rectal temperatures °C. (mice [2]; 4 mg/kg oral, 90 min): 31.6 ± 0.91 °C
- Rectal temperatures °C. (mice [2]; 4 mg/kg oral, 120 min): 32.4 ± 0.89 °C
- Rectal temperatures °C. (mice [2]; 8 mg/kg intraperitoneal, 30 min): 32.1 ± 0.52 °C
- Rectal temperatures °C. (mice [2]; 8 mg/kg intraperitoneal, 60 min): 31.3 ± 0.52 °C
- Rectal temperatures °C. (mice [2]; 8 mg/kg intraperitoneal, 90 min): 32.2 ± 0.61 °C
- Rectal temperatures °C. (mice [2]; 8 mg/kg intraperitoneal, 120 min): 33.8 ± 0.91 °C
- Rectal temperatures °C. (mice [2]; 8 mg/kg oral, 30 min): 32.6 ± 0.32 °C
- Rectal temperatures °C. (mice [2]; 8 mg/kg oral, 60 min): 32.4 ± 0.29 °C
- Rectal temperatures °C. (mice [2]; 8 mg/kg oral, 90 min): 32.9 ± 0.38 °C
- Rectal temperatures °C. (mice [2]; 8 mg/kg oral, 120 min): 33.8 ± 0.56 °C
- Rectal temperatures °C. (mice [2]; 16 mg/kg intraperitoneal, 30 min): 32.9 ± 0.46 °C
- Rectal temperatures °C. (mice [2]; 16 mg/kg intraperitoneal, 60 min): 32.0 ± 0.65 °C
- Rectal temperatures °C. (mice [2]; 16 mg/kg intraperitoneal, 90 min): 32.8 ± 0.60 °C
- Rectal temperatures °C. (mice [2]; 16 mg/kg intraperitoneal, 120 min): 35.9 ± 0.81 °C
- Rectal temperatures °C. (mice [2]; 16 mg/kg oral, 30 min): 31.9 ± 0.53 °C
- Rectal temperatures °C. (mice [2]; 16 mg/kg oral, 60 min): 31.9 ± 0.49 °C
- Rectal temperatures °C. (mice [2]; 16 mg/kg oral, 90 min): 32.8 ± 0.70 °C
- Rectal temperatures °C. (mice [2]; 16 mg/kg oral, 120 min): 33.6 ± 0.97 °C
- Rectal temperatures °C. (mice [2]; 32 mg/kg intraperitoneal, 30 min): 32.0 ± 0.70 °C
